Values joined by “and” are separate entries in the source; they are usually repeats but may differ in a detail not shown here. Equal entries are not always repeated. “Also recorded” adds a separate entry of the source.
Key:
[1] = Absorption, blood concentration and fate of elastase after oral administration; assay type: in vivo
[2] = test system: gonarthralgia; assay: Clinical examples: effectiveness against gonarthralgia; assay type: in vivo, human
Excerpt: (§1) The subjects included 18 patients (men 6 cases, women 12 cases, ages 57 to 88, average 70.9±8.2 years old) that were diagnosed negative as to rheumatoid arthrosis and were clinically diagnosed as suffering from gonarthrosis deformans. […] The distribution of the duration of gonarthralgia in the patients from the onset thereof was such that six cases fell into each of the periods of (1) three years or shorter, (2) four to five years, and (3) five years or longer.
(§2) The effectiveness of elastase against gonarthrosis deformans was evaluated by administering capsules containing 1,800 EL.U elastase at a daily dosage of 3 capsules per day to each patient for 8 weeks, and investigating the severity of gonarthralgia before administration, 4 weeks after administration, and 8 weeks after administration.
(§3) However, these patients had received and continued to receive during the test period antihypertensive agents, agents for improving cerebral circulation and other drugs for the treatment of their underlying diseases. However, the levels of these drugs in the patients' bodies remained unchanged from the day 8 weeks before the start of the test up to the last day of the test. During the tests, no patient received any other antiinflammatory, analgesic or steroid having the possible effect of palliation of arthralgia.

[3] = test system: Wistar strain female and male rats; assay: Chronic toxicity, rats; assay type: in vivo, rat; settings: oral, 2,250, 5,700, 11,250 or 22,500 EL. U/kg/day for 24 weeks
Excerpt: Elastase was orally administered to Wistar strain female and male rats at dosages of 2,250, 5,700, 11,250 or 22,500 EL. U/kg/day for 24 weeks.

[4] = test system: elastase; settings: cited from earlier work
[5] = test system: other types of arthralgia; assay: Clinical examples: effectiveness against other types of arthralgia and symptoms; assay type: in vivo, human
Excerpt: as §1, §2, §3

[6] = test system: human patients; assay: Clinical examples: side effects; assay type: in vivo; settings: for resolution of epigastric discomfort: after 4 weeks
Excerpt: as §1, §2, §3

[7] = porcine elastase; cited from earlier work
[8] = test system: lipoprotein; settings: cited from earlier work
[9] = test system: lipid metabolism in the serum and tissues; arterial walls; settings: cited from earlier work
[10] = test system: Wistar strain female and male rats; assay: Subacute toxicity, rats; assay type: in vivo, rat; settings: oral, 750, 7,500 and 37,500 or 75,000 EL. U/kg/day for 4 weeks
Excerpt: (§4) Elastase was orally administered to Wistar strain female and male rats at dosages of 750, 7,500 and 37,500 or 75,000 EL. U/kg/day for 4 weeks, and to female and male beagle dogs at dosages of 900 or 4,500 EL. U/kg/day for 12 weeks.

[11] = test system: female and male beagle dogs; assay: Subacute toxicity, dogs; assay type: in vivo, dog; settings: oral, 900 or 4,500 EL. U/kg/day for 12 weeks
Excerpt: as §4

[12] = test system: pregnant mice; assay: Teratogenicity, mice; assay type: in vivo, mouse; settings: oral, 750, 7,500 or 75,000 EL. U/kg/day, 6 days
Excerpt: (§5) Elastase was forcibly orally administered to pregnant mice and rats in the stage of organogenesis at dosages of 750, 7,500 or 75,000 EL. U/kg/day for 6 consecutive days. As a result, death, hindrance to growth and teratogenesis of the embryos were not observed, and there was no effect upon the morphological and functional differentiation of the newborn animals.

[13] = test system: pregnant rats; assay: Teratogenicity, rats; assay type: in vivo, rat; settings: oral, 750, 7,500 or 75,000 EL. U/kg/day, 6 days
Excerpt: as §5

[14] = duration 3 years or shorter, 4 w
[15] = duration 3 years or shorter, 8 w
[16] = duration 5 years or longer, 4 w
[17] = duration 5 years or longer, 8 w
[18] = individual patient case (one line per case No. 1-18), 3 capsules of 1,800 EL.U per day
[19] = individual patient case (Table 2)

elastase: enzyme which specifically decomposes elastin, a water-insoluble scleroprotein; industrially produced by extraction from swine pancreas
time of maximum concentration of elastase in the blood ([1]; after (oral) administration): 6 h
combination with blood proteins ([1]; in the blood): combines with α2 -macroglobulin and α1 -antitrypsin
area under the blood concentration curve versus dosage ([1]; oral): increases in proportion to the dosage
distribution ([1]; oral): distributed widely over all of the body tissues
excretion ([1]; oral): excreted into the urine
metabolism ([1]; oral): metabolized chiefly in the liver
"ineffective" result, number ([2]; 4 to 5 year group): one
"ineffective" result, number ([2]; 5 years or longer group): one
result (case history) ([2]; Case 4, Case 8, Case 16, Case 13): markedly effective; also recorded: ineffective (when there was no effect)
pain in knee joints when administration was discontinued ([2]; Case 9): worsened
gonarthralgia after restart of administration ([2]; Case 9, restarted at beginning of third week): palliation of gonarthralgia
improvement, case history ([2]; Case 13, after either 4 weeks or 8 weeks): no improvement was recognized
difficulty with Japanese dancing, case history ([2]; Case 16, after 4 weeks): disappeared
knee pain, case history ([2]; after 4 weeks, Case 4, Case 8, Case 16): completely cleared up; also recorded: disappeared entirely
gonarthralgia in cases with other symptoms ([2]; all of these cases): palliated or cleared up
aggravated, number of cases [2, 14]: 0
effective, number of cases [2, 14]: 3
ineffective, number of cases [2, 14]: 0
markedly effective, number of cases [2, 14]: 3
rate of effectiveness [2, 14]: 100%
rate of effectiveness (cases/total) [2, 14]: 6/6
aggravated, number of cases [2, 15]: 0
effective, number of cases [2, 15]: 3
ineffective, number of cases [2, 15]: 0
markedly effective, number of cases [2, 15]: 3
rate of effectiveness [2, 15]: 100%
rate of effectiveness (cases/total) [2, 15]: 6/6
aggravated, number of cases ([2]; duration 4 to 5 years, 4 w): 0
effective, number of cases ([2]; duration 4 to 5 years, 4 w): 3
ineffective, number of cases ([2]; duration 4 to 5 years, 4 w): 1
markedly effective, number of cases ([2]; duration 4 to 5 years, 4 w): 2
rate of effectiveness ([2]; duration 4 to 5 years, 4 w): 83.3%
rate of effectiveness (cases/total) ([2]; duration 4 to 5 years, 4 w): 5/6
aggravated, number of cases ([2]; duration 4 to 5 years, 8 w): 0
effective, number of cases ([2]; duration 4 to 5 years, 8 w): 2
ineffective, number of cases ([2]; duration 4 to 5 years, 8 w): 1
markedly effective, number of cases ([2]; duration 4 to 5 years, 8 w): 3
rate of effectiveness ([2]; duration 4 to 5 years, 8 w): 83.3%
rate of effectiveness (cases/total) ([2]; duration 4 to 5 years, 8 w): 5/6
aggravated, number of cases [2, 16]: 0
effective, number of cases [2, 16]: 4
ineffective, number of cases [2, 16]: 1
markedly effective, number of cases [2, 16]: 1
rate of effectiveness [2, 16]: 83.3%
rate of effectiveness (cases/total) [2, 16]: 5/6
aggravated, number of cases [2, 17]: 0
effective, number of cases [2, 17]: 3
ineffective, number of cases [2, 17]: 1
markedly effective, number of cases [2, 17]: 2
rate of effectiveness [2, 17]: 83.3%
rate of effectiveness (cases/total) [2, 17]: 5/6
cases with gonarthralgia completely cleared up, number ([2]; duration greater than 5 years): two
overall rate of improvement ([2]; entire group of 18 patients): 88.9%
patients with distinct palliation or complete clearing of gonarthralgia, number ([2]; entire group of patients): sixteen
results of "aggravated" ([2]; entire group of patients): no results of "aggravated"
results of "ineffective", number ([2]; entire group of patients): two
Effect on arthralgia after 4 w. [2, 18]: + (effective) and ++ and - (ineffective)
Effect on arthralgia after 8 w. [2, 18]: + (effective) and ++ and - (ineffective)
persistent gonarthralgia ([2]; most of the patients, during term of administration, not informed of relation): considerably palliated or completely cleared up
results of "markedly effective", 8 weeks compared with 4 weeks ([2]; overall): somewhat higher after the 8 week period
rate of effectiveness ([2]; overall, 4 w): 88.9%
rate of effectiveness (cases/total) ([2]; overall, 4 w): 16/18
effective, number of cases ([2]; overall, 4 w, 18 cases): 10
markedly effective, number of cases ([2]; overall, 4 w, 18 cases): 6
rate of effectiveness (cases/total) ([2]; overall, 8 w): 16/18
rate of effectiveness / overall rate of improvement ([2]; overall, 8 w): 88.9%
rate of "effective" ([2]; overall, after 4 weeks): 55.6%
rate of "ineffective" ([2]; overall, after 4 weeks): 11.1%
rate of "markedly effective" ([2]; overall, after 4 weeks): 33.3%
rate of "aggravated" ([2]; overall, after 8 weeks): 0%
rate of "effective" ([2]; overall, after 8 weeks): 44.4% and 44.48%
rate of "ineffective" ([2]; overall, after 8 weeks): 11.1%
rate of "markedly effective" ([2]; overall, after 8 weeks): 44.4% and 44.48%
onset of perceived palliation or clearing of arthralgia ([2]; patients who showed improvement, after start of administration): at the beginning of the second week
Chronic toxicity: general physical condition, blood and urinary tests, morphological observations [3]: no anomalous findings
optimal activation pH, particularly ([4]; N-α-benzoyl-L-alanine methyl ester as substrate): about 8.8
optimal activation pH ([4]; N-α-benzoyl-L-alanine methyl ester as substrate, range): 8 to 10
decomposition of N-α-benzoyl-L-alanine methyl ester, acetyl-L-trialanine-p-nitroanilide and elastin ([4]; porcine elastase): specifically decomposing
morning stiffness in the fingers ([5]; Case 4, after 4 weeks): cleared up
lumbago ([5]; Case 5, during the term of administration): cleared up
cinesalgia in the left shoulder (periarthritis) ([5]; Case 6, during the term of administration): No change
anomalies of sensation in fingers ([5]; Cases 10 and 15): not cleared up
Miscellaneous [5, 19]: morning stiffness in hands cleared; also recorded: carpal tunnel syndrome not changed; also recorded: dancing eliminated
Miscellaneous: lumbago [5, 19]: cleared; also recorded: lumbago lasting
discontinuation of administration in cases with epigastric discomfort ([6]; 3 cases (conclusions)): not discontinued in any of these cases
epigastric discomfort, number of cases ([6]; 18 patients, 8 weeks): 3
epigastric discomfort, rate ([6]; 18 patients, 8 weeks): 16.7%
Miscellaneous: discontinuation and restart ([6]; Case 9 (Table 2)): administration discontinued after 2 w; also recorded: restarted because of worsened arthralgia
resolution of epigastric discomfort ([6]; Case 9, administration restarted): cleared up after 4 weeks
discontinuation of administration because of epigastric discomfort ([6]; Case 9, at the beginning of the second week): discontinued at the beginning of the second week
epigastric discomfort ([6]; Cases 3, 6 and 9, one to two weeks after administration began): suffered from epigastric discomfort for several days
resolution of epigastric discomfort ([6]; Cases 3 and 6): disappeared after 4 weeks
nausea, vomiting, exanthema or the like ([6]; all cases): In none of the cases
Side effect (transient epigastric discomfort) [6, 19]: transient
isoelectric point [7]: 9.5±0.5 pH
β-lipoproteinase activity and lipoprotein lipase activity [8]: confirmed
removal of denatured elastin, formation of fresh elastin, fat deposition, atherosclerosis ([9]; arterial walls): functions to remove denatured elastin from arterial walls and to promote formation of fresh elastin
effect on disturbance of lipid metabolism in the serum and tissues ([9]; in vivo): normalizing effect
elasticity and dilatability of arterial walls ([9]; in vivo): maintains and promotes
Subacute toxicity: general physical condition, blood and urinary tests, morphological observations [10]: no noteworthy anomalous findings
Subacute toxicity: general physical condition, blood and urinary tests, morphological observations [11]: no noteworthy anomalous findings
effect upon morphological and functional differentiation of the newborn animals [12]: no effect
death, hindrance to growth and teratogenesis of the embryos ([12]; organogenesis): not observed
effect upon morphological and functional differentiation of the newborn animals [13]: no effect
death, hindrance to growth and teratogenesis of the embryos ([13]; organogenesis): not observed

From patent US4446129A, “Method for treatment of arthrosis deformans with elastase” (Eisai Co., Ltd., priority 1982, dated 1984)
